Data: patent US20140357512A1, “HISTONE DEACETYLASE (HDAC) BIOMARKERS IN MULTIPLE MYELOMA” (priority 2013, published 2014)

Test system: human myeloma cell line MM.1S
Assay: SILAC acetylated-lysine peptide profiling, HDAC inhibitor vs DMSO (light/heavy ratio)
Format: cell-based
From the text: An embodiment of the invention comprises utilizing the SILAC method in order to quantitate changes in protein expression between two or more populations of cells. The SILAC method is a technique based on mass spectrometry that detects differences in protein abundance among samples using non-radioactive isotopic labeling. The SILAC method is known in the art, and described in detail in Ong et al., “Stable Isotope Labeling by Amino Acids in Cell Culture, SILAC, as a Simple and Accurate Approach to Expression Proteomics”, Molecular & Cellular Proteomics, vol. 1, pp. 376-386 (2002), which is incorporated herein by reference in its entirety.
Briefly, the SILAC method involves growing two populations of cells in cell culture. The first population of cells is grown in growth media containing normal amino acids (“normal media”). The second population of cells is grown in media lacking a standard essential amino acid (such as lysine), but is then supplemented with a non-radioactive, isotopically labeled form of that essential amino acid (such as lysine labeled with ^13C atoms, rather than normal ^12C atoms), which is called “heavy media”. When the two populations of cells are each growing in the medium, they incorporate the amino acids into all of their proteins. The growth of cells maintained in the heavy media is no different from that in normal media. All peptides containing the heavy amino acids are heavier than their normal counterparts. The cells from each of the two populations of cells are lysed. The lysates from each of the two cell populations are then combined. The combined cell lysates are then analyzed by mass spectrometry. Pairs of chemically identical peptides of different stable isotope composition can be differentiated in a mass spectrometer due to their difference in mass. The ratio of peak intensities in the mass spectrum for such peptide pairs reflects the abundance ratio for the two proteins.
This example describes SILAC studies that were performed to compare the effects of three different HDAC inhibitors (Compound A, Compound B, and tubastatin A) to a control on a human multiple myeloma cell line. The HDAC inhibitors were also compared amongst themselves to determine differences in their effects.
A human myeloma cell line MM.1S was grown using either ^12C (light) or ^13C (heavy) lysine containing culture medium. The “heavy” cells were treated with DMSO as the control, and the “light” cells were treated with a single HDAC inhibitor at 37° C. for 6 hours. The heavy and light cells were lysed, and the lysates were mixed in 1:1 ratio and digested with the protease trypsin. The acetylated lysine containing peptides (due to the action of the HDAC inhibitor) in the digested peptide pool were captured by a non-specific anti-acetylated lysine antibody cocktail (the antibodies identify both light and heavy acetylated peptides), and subjected to mass spectrometry analysis in order to identify thousands of individual peptides.
Thousands of peptides were identified in pairs (^12C and ^13C) due to their known mass differences. The amino acid sequence and quantitative ratio (Light/Heavy) of a given peptide in two differentially treated cell lysates were then determined and annotated with their possible protein (gene) sources.
As stated above, three HDAC inhibitors (Compound A, Compound B, and Tubastatin A) were used. Thus, the SILAC method was performed three times, with a different HDAC inhibitor compared to a control each time. Accordingly, there are three pairs of quantitative data in the table below, i.e., Compound A:DMSO, Compound B:DMSO, and Tubastatin A:DMSO. A cut-off of 1.30 fold of change (increase or decrease) was then used to determine “changed” or “+” in the table, and any peptides with a fold of change less than 1.3 fold were determined to be “unchanged” or “0” in the table. Those peptides that were not identified were marked as “NA” in the table. […]

O=C(CCCCCCNC(=O)c1cnc(N(c2ccccc2)c2ccccc2)nc1)NO [Compound A, 2-(diphenylamino)-N-(7-(hydroxyamino)-7-oxoheptyl)pyrimidine-5-carboxamide]
light to heavy ratio (L/H ratio), log 2 scale, acetylated peptide KLQK(ac)AALLK (SEQ ID NO: 806) (Ribosomal protein L14 variant [132], gene RPL14, drug:DMSO): 1.00 | light to heavy ratio (L/H ratio) of acetylated peptide […](ac)R (SEQ ID NO: 334) (S1 IF1 type family protein [56], EIF1AXP1, drug:DMSO): 0.00 log 2 | L/H ratio of acetylated peptide LAELK(ac)QECLAR (SEQ ID NO: 94) (SARNP 17], log 2 scale, drug vs DMSO): 0.00 | L/H ratio of acetylated peptide (ac)ATETVELHK(ac)LK (SEQ ID NO: 93) (SARNP [10], log 2 scale, drug vs DMSO): 0.00 | L/H ratio of acetylated peptide ANLVFK(ac)EIEK (SEQ ID NO: 95) (SCP2 [438], log 2 scale, drug vs DMSO): 0.00 | L/H ratio of acetylated peptide EGQNWLEK(ac)K (SEQ ID NO: 96) (SEC11C [147], log 2 scale, drug vs DMSO): 0.00 | L/H ratio of acetylated peptide EHTALLK(ac)IEGVYAR (SEQ ID NO: 630, 60S ribosomal protein L35a [29], RPL35A): 0.49 log 2 | L/H ratio of acetylated peptide FNDGSDEK(ac)KK (SEQ ID NO: 631, ATP synthase subunit alpha mitochondrial [239], ATP5A1): 0.49 log 2 | L/H ratio of acetylated peptide FSK(ac)[…] (SEQ ID NO: 632, X-ray repair cross-complementing protein 5 [144], XRCC5): 0.50 log 2 | L/H ratio of acetylated peptide LTCEEEEEK(ac)IFGR (SEQ ID NO: 633, Isoform Short of Probable global transcription activator SNF2L2 [1302], SMARCA2): 0.51 log 2 | L/H ratio of acetylated peptide NDEELNK(ac)LLGR (SEQ ID NO: 634, Histone H2A type 1-B/E [96], HIST1H2AE, HIST1H2AB, HIST1H2AD, HIST1H2AG, HIST1H2AK, HIST1H2AL, HIST1H2AM, HIST1H2AJ, HIST1H2AI): 0.52 log 2 | L/H ratio of acetylated peptide ALEAVFGK(ac)YGR (SEQ ID NO: 635, Heterogeneous nuclear ribonucleoprotein G [30], RBMX): 0.52 log 2 | L/H ratio of acetylated peptide TFK(ac)[…] (SEQ ID NO: 636, 60S ribosomal protein L3 [103], SNORD43, RPL3): 0.52 log 2 | L/H ratio of acetylated peptide YK(ac)[…] (SEQ ID NO: 637, Protein disulfide-isomerase [328], P4HB): 0.52 log 2 | L/H ratio of acetylated peptide NAEK(ac)YAEEDRR (SEQ ID NO: 638, Stress-70 protein mitochondrial [567], HSPA9): 0.52 log 2 | L/H ratio of acetylated peptide […](ac)DR (SEQ ID NO: 639, pyruvate dehydrogenase E1 component subunit alpha somatic form mitochondrial isoform 2 precursor [359], PDHA1): 0.53 log 2 | L/H ratio of acetylated peptide GVDPK(ac)FLR (SEQ ID NO: 640, Ribosomal protein L29 [38], RPL29, RPL29P4): 0.53 log 2 | L/H ratio of acetylated peptide LIK(ac)DGLIIR (SEQ ID NO: 641, 60S ribosomal protein L19 [46], RPL19): 0.53 log 2 | L/H ratio of acetylated peptide HLLPK(ac)IR (SEQ ID NO: 642, 6-phosphogluconate dehydrogenase decarboxylating [253], PGD): 0.53 log 2 | L/H ratio of acetylated peptide LGK(ac)PSLVR (SEQ ID NO: 643, TOB3 [280], ATAD3B): 0.53 log 2 | L/H ratio of acetylated peptide EQIYK(ac)LAK (SEQ ID NO: 644, 40S ribosomal protein S13 [39], RPS13): 0.54 log 2 | L/H ratio of acetylated peptide VEYFLK(ac)WK (SEQ ID NO: 645, Chromobox protein homolog 3 [50], CBX3): 0.54 log 2 | L/H ratio of acetylated peptide HYK(ac)TDFDK (SEQ ID NO: 646, Isocitrate dehydrogenase [NADP] mitochondrial [275], IDH2): 0.54 log 2 | L/H ratio of acetylated peptide EGYAWAEDK(ac)EHCEEYGR (SEQ ID NO: 647, tRNA-splicing ligase RtcB homolog [190], C22orf28): 0.54 log 2 | L/H ratio of acetylated peptide LAYIAHPK(ac)LGK (SEQ ID NO: 648, Ribosomal protein L29 [103], RPL29, RPL29P4): 0.55 log 2 | L/H ratio of acetylated peptide IFSQETLTK(ac)AQILK (SEQ ID NO: 649, Prenylcysteine oxidase 1 [415], PCYOX1): 0.55 log 2 | L/H ratio of acetylated peptide […](ac)QNK (SEQ ID NO: 650, Dihydrolipoyl dehydrogenase mitochondrial [143], DLD): 0.55 log 2 | L/H ratio of acetylated peptide FYVK(ac)DHR (SEQ ID NO: 651, CDGSH iron-sulfur domain-containing protein 1 [37], CISD1): 0.55 log 2 | L/H ratio of acetylated peptide SPVNTK(ac)SLFK (SEQ ID NO: 652, Isoform 1 of DNA-dependent protein kinase catalytic subunit [1057], PRKDC): 0.55 log 2 | L/H ratio of acetylated peptide HIVK(ac)EFK (SEQ ID NO: 653, Stress-70 protein mitochondrial [288], HSPA9): 0.56 log 2 | L/H ratio of acetylated peptide MYKEEGLK(ac)AFYK (SEQ ID NO: 654, Isoform A of Phosphate carrier protein mitochondrial [214], SLC25A3): 0.56 log 2 | L/H ratio of acetylated peptide LDAQVK(ac)ELVLK (SEQ ID NO: 655, Dolichyl-diphospho-oligosaccharide--protein glycosyltransferase subunit 1 precursor [598], RPN1): 0.56 log 2 | L/H ratio of acetylated peptide GYPTLK(ac)[…] (SEQ ID NO: 656, Thioredoxin domain-containing protein 5 [140], TXNDC5, MUTED, MUTED-TXNDC5): 0.56 log 2 | L/H ratio of acetylated peptide […](ac)EFR (SEQ ID NO: 657, Isoform 1 of Clathrin heavy chain 1 [1264], CLTC): 0.57 log 2 | L/H ratio of acetylated peptide YK(ac)EALEQCR (SEQ ID NO: 658, Isoform 2 of Antigen peptide transporter 2 [356], TAP2): 0.57 log 2 | L/H ratio of acetylated peptide YELTGK(ac)FER (SEQ ID NO: 659, Annexin A6 [81], ANXA6): 0.57 log 2
